Data reported in US7193108B2, “Phenylpropionic acid derivatives” (Ajinomoto Co., Inc., priority 2001, dated 2007).

Each molecule was assayed against T1, integrin α 4 β 7 (Homo sapiens, UniProt P13612+P26010) (assay: VCAM antagonistic activity (VCAM-1/α 4 β 7 binding assay): binding of RPMI-8866 cells to VCAM-1). Conditions: fluorescent RPMI-8866 cells binding to recombinant human VCAM-1, 4 mM MnCl2, room temperature 30 minutes.
T1 construct: lymphoma cell strain RPMI-8866 of human B cells, known to express integrin α 4 β 7; endogenous in cells; host or cells: RPMI-8866 (human B cell lymphoma line)
T1 sequence (P13612 34-1032): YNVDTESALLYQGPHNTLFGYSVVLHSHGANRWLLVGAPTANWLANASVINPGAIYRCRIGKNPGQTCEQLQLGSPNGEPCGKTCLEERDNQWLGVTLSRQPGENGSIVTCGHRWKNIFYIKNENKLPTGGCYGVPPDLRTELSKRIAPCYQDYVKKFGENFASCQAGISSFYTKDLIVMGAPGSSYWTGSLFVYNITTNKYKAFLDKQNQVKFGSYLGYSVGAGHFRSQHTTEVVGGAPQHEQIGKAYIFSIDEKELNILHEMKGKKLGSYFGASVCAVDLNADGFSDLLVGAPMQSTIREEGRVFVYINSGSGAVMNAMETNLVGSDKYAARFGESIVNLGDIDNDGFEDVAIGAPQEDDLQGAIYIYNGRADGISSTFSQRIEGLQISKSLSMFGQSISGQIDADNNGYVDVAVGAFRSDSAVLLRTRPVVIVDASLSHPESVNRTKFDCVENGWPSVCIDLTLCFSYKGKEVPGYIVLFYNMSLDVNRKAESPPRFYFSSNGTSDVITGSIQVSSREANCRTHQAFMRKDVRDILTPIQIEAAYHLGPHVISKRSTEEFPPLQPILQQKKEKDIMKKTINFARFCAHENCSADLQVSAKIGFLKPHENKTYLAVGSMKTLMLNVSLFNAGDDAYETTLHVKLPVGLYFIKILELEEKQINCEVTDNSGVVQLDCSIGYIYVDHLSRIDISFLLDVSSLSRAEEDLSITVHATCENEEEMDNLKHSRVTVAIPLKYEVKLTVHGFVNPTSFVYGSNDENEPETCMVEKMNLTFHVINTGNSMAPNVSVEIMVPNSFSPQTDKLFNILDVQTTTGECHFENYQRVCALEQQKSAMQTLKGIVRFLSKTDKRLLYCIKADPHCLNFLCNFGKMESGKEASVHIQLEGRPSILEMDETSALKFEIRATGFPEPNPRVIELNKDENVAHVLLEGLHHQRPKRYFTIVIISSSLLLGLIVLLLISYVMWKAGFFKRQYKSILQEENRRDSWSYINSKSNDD
T1 sequence (P26010 20-798): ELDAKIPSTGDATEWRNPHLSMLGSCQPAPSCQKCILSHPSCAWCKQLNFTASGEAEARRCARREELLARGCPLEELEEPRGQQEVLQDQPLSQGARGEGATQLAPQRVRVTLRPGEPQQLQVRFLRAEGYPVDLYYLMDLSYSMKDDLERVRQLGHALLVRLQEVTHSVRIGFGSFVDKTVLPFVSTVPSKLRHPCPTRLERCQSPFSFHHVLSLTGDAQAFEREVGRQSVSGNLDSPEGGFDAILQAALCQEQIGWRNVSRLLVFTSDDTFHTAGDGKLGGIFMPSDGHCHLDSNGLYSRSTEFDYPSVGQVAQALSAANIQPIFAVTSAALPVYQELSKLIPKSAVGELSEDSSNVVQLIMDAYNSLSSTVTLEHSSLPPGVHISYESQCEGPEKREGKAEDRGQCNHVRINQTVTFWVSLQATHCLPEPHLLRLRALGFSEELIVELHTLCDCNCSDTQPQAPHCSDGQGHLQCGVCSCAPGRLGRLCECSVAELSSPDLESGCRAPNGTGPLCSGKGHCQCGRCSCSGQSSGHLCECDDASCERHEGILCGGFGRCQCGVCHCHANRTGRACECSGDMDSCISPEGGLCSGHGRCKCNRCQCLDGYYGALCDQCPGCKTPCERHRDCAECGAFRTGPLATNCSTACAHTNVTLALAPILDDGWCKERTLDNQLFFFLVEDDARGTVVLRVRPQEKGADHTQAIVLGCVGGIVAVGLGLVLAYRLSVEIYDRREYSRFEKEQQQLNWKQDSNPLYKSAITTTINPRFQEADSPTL
Type: cell-based
Protocol: (Test Example) VCAM Antagonistic Activity (VCAM-1/α 4 β 7 Binding Assay)
The capacity of a test substance antagonistic to the binding of lymphoma cell strain RPMI-8866 of human B cells, known to express integrin α 4 β 7, to VCAM-1 was determined.
100 μl/well of a solution (500 ng/ml) of recombinant human VCAM-1 (R & D systems) solution diluted with buffer A (0.1 M NaHCO3, pH 9.6) was added to a micro titer plate having 96 wells (Nunc Maxisorp). After the incubation at 4° C. overnight, unbound VCAM-1 was removed by washing once with PBS. After completion of the washing, a buffer (buffer B) obtained by diluting Block Ace (Dainippon Pharmaceutical Co., Ltd.) with PBS to ¼ concentration was added in an amount of 150 μl/well. After the incubation at room temperature for 1 hour, buffer B was removed and the plate was washed with PBS once.
RPMI-8866 cells were incubated in Dulbecco modified Eagle medium containing 10 μg/ml of Calcein-AM (Wako Pure Chemical Industries, Ltd.) (SIGMA, hereinafter referred to as “DMEM”) at 37° C. for 30 minutes to label with fluorescence. The cells were again suspended in a binding buffer (20 mM HEPES, DMEM containing 0.1% BSA) containing 4 mM of MnCl2.
50 μl of a test substance of various concentrations obtained by the dilution with the binding buffer was added to the plate. Immediately thereafter, 50 μl (final volume: 100 μl/well) of the fluorescent RPMI-8866 cells (4×10^6 cells/ml) were added thereto, and they were incubated at room temperature for 30 minutes. After the shaking on a plate shaker (IKA MTS-4) at 800 rpm for 30 seconds, the solution was immediately removed to remove the unbound cells. The fluorescence quantity of the bound cells remaining in the wells was determined with a fluorescent plate reader (Wallac 1420 ARVO multi-label counter) (filter excitation wave length: 485 nm, emission wave length: 535 nm). The fluorescent strength thus obtained is proportional to the number of RPMI-8866 cells bound to VCAM-1 and remaining on the plate. The binding rate of each test material in various concentrations was determined while the fluorescent strength of the test material-free well was determined to be 100%. The concentration IC50 for the 50% binding inhibition was calculated.
The antagonistic activity is shown as A when IC50 is 0.8 μmol/L or less, B when IC50 is above 0.8 μmol/L and 4 μmol/L or less, C when IC50 is above 4 μmol/L and 20 μmol/L or less, and D when IC50 is above 20 μmol/L and 100 μmol/L or less.
`Cn1c(=O)n(-c2ccc(/C=C(\CC(=O)c3c(Cl)cccc3Cl)C(=O)O)cc2)c(=O)c2ccccc21` [Example 5, (E)-2-[2-(2,6-dichlorophenyl)-2-oxoethyl]-3-[4-(1-methyl-2,4-dioxo-1,2,3,4-tetrahydroquinazoline-3-yl)phenyl]acrylic acid] showed an IC50 of at most 0.8 µM. For `Cn1c(=O)n(-c2ccc(CC(CC(=O)c3c(Cl)cccc3Cl)C(=O)O)cc2)c(=O)c2ccccc21` (stereo not drawn) [Example 2, 4-(2,6-dichlorophenyl)-2-[4-(1-methyl-2,4-dioxo-1,2,3,4-tetrahydroquinazoline-3-yl)benzyl]-4-oxobutanoic acid], the IC50 was at most 0.8 µM. For `Cn1c(=O)n(-c2ccc(CC(CC(=O)c3ccccc3)C(=O)O)cc2)c(=O)c2ccccc21` (stereo not drawn) [Example 1, 4-phenyl-2-[4-(1-methyl-2,4-dioxo-1,2,3,4-tetrahydroquinazoline-3-yl)benzyl]-4-oxobutanoic acid], the IC50 was 20 to 100 µM. Work on `COC(=O)c1ccccc1NC(=O)Nc1ccc(CC(CC(=O)c2c(Cl)cccc2Cl)C(=O)O)cc1` (stereo not drawn) [Example 6, 4-(2,6-dichlorophenyl)-2-[4-[[(2-methoxycarbonylphenyl)amino]carbonylamino]benzyl]-4-oxobutanoic acid] yielded an IC50 of 20 to 100 µM. `Cn1c(=O)n(-c2ccc(CC(CC(O)c3c(Cl)cccc3Cl)C(=O)O)cc2)c(=O)c2ccccc21` (stereo not drawn) [Example 7, 4-(2,6-dichlorophenyl)-4-hydroxy-2-[4-(1-methyl-2,4-dioxo-1,2,3,4-tetrahydroquinazoline-3-yl)benzyl]butanoic acid] showed an IC50 of 20 to 100 µM. Work on `Cn1c(=O)n(-c2ccc(CC(CC(=O)c3c(F)cccc3F)C(=O)O)cc2)c(=O)c2ccccc21` (stereo not drawn) [Example 3, 4-(2,6-difluorophenyl)-2-[4-(1-methyl-2,4-dioxo-1,2,3,4-tetrahydroquinazoline-3-yl)benzyl]-4-oxobutanoic acid] yielded an IC50 of 0.8 to 4 µM.
